# Results: patent US9688684B2, “Substituted tetrazolo[1,5-a]pyrazines as ROR-gamma inhibitors” (Merck Patent GmbH, priority 2013, dated 2017)
# Target: human RORγ ligand binding domain (GST-hRORγ-LBD) (Homo sapiens (Human), UniProt P51449)
# Test: TR-FRET assay (biochemical cofactor interaction assay, GST-hRORγ-LBD / TRAP220 peptide)
# From the text: RORγ is an orphan member of the nuclear receptor (NR) family displaying constitutive activity. The activity of nuclear receptors can be modulated by ligand-induced cofactor protein interactions. For example, agonist binding leads to recruitment of coactivator protein, and antagonist binding either blocks coactivator interaction or facilitates the recruitment of corepressors. […] The conformational change induced by ligand binding influences interactions with LXXLL motif peptides.
# RORγ (t) is a thymus-specific isoform of RORγ which is widely expressed. It shares the same ligand binding domain (LBD) sequence with RORγ. Thus, a screen using the LBD will yield antagonists targeting both RORγ and RORγt.
# In order to identify compounds which block activity of the human nuclear receptor Retinoid-related Orphan Receptor gamma (RORγ) a biochemical cofactor interaction assay based on the TR-FRET principle is performed. […] The ligand-binding domain (LBD) of RORγ is expressed as fusion protein with GST in […] cells using the vector pDEST15. Cells are lysed by lysozyme-treatment and sonication, and the fusion proteins purified over glutathione sepharose (Pharmacia) according to the manufacturers instructions. The strong constitutive interaction is disrupted upon binding of functional antagonists. The strength of the interaction is monitored by TR-FRET between streptavidine APC interacting with the biotinylated peptide and Europium-labelled Anti-GST.
# human RORγ ligand binding domain (GST-hRORγ-LBD), sequence (P51449 269-508): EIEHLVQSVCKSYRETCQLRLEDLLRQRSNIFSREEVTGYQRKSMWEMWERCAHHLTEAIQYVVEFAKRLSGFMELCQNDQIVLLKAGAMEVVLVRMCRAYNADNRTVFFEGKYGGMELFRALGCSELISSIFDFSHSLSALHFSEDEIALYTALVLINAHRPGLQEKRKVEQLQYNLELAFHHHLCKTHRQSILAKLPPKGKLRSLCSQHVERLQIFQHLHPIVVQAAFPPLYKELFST
row,IC50,Compound
1,9.9 to 40 µM,"CCn1cc(CN2CCn3nnnc3C2c2cn(-c3ccccc3)nc2C(C)C)cn1 (stereo not drawn) [Compound 155, 7-(1-Ethyl-1H-pyrazol-4-ylmethyl)-8-(3-isopropyl-1-phenyl-1H-pyrazol-4-yl)-5,6,7,8-tetrahydro-tetrazolo[1,5-a]pyrazine]"
2,9.9 to 40 µM,"Cc1cccc(CN2CCn3nnnc3C2c2cn(-c3ccccc3)nc2C(C)C)c1 (stereo not drawn) [Compound 57, 8-(3-Isopropyl-1-phenyl-1H-pyrazol-4-yl)-7-(3-methyl-benzyl)-5,6,7,8-tetrahydro-tetrazolo[1,5-a]pyrazine]"
3,9.9 to 40 µM,"O=C(c1cccc(Br)c1)N1CCn2nnnc2C1c1cccc(F)c1 (stereo not drawn) [Compound 82, (3-Bromo-phenyl)-[8-(3-fluoro-phenyl)-5,6-dihydro-8H-tetrazolo[1,5-a]pyrazin-7-yl]-methanone]"
4,9.9 to 40 µM,"Fc1ccc(F)c(CN2CCn3nnnc3C2c2cccc(F)c2F)c1 (stereo not drawn) [Compound 74, 7-(2,5-Difluoro-benzyl)-8-(2,3-difluoro-phenyl)-5,6,7,8-tetrahydro-tetrazolo[1,5-a]pyrazine]"
5,9.9 to 40 µM,"COc1ccc(OC)c(C2c3nnnn3CCN2Cc2cccc(F)c2F)c1 (stereo not drawn) [Compound 151, 7-(2,3-Difluoro-benzyl)-8-(2,5-dimethoxy-phenyl)-5,6,7,8-tetrahydro-tetrazolo[1,5-a]pyrazine]"
6,9.9 to 40 µM,"Cc1nn(C)c(C)c1CN1CCn2nnnc2C1c1cn(-c2ccccc2)nc1C(C)C (stereo not drawn) [Compound 157, 8-(3-Isopropyl-1-phenyl-1H-pyrazol-4-yl)-7-(1,3,5-trimethyl-1H-pyrazol-4-ylmethyl)-5,6,7,8-tetrahydro-tetrazolo[1,5-a]pyrazine]"
7,9.9 to 40 µM,"Fc1ccc(F)c(CN2CCn3nnnc3C2c2cc(F)ccc2F)c1 (stereo not drawn) [Compound 32, 7-(2,5-Difluoro-benzyl)-8-(2,5-difluoro-phenyl)-5,6,7,8-tetrahydro-tetrazolo[1,5-a]pyrazine]"
8,9.9 to 40 µM,"CCOc1ccc(CN2CCn3nnnc3C2C2CCCCC2)cc1 (stereo not drawn) [Compound 67, 8-Cyclohexyl-7-(4-ethoxy-benzyl)-5,6,7,8-tetrahydro-tetrazolo[1,5-a]pyrazine]"

# The remaining lines, values behind:
row,Compound,IC50
1,"Fc1ccc(CN2CCn3nnnc3C2c2cccc(F)c2)cc1 (single isomer, unassigned) [Compound 91-a, 7-(4-Fluoro-benzyl)-8-(3-fluoro-phenyl)-5,6,7,8-tetrahydro-tetrazolo[1,5-a]pyrazine]",9.9 to 40 µM
2,"CC(C)Oc1ccc(C2c3nnnn3CCN2CC2CCCCC2)cc1 (stereo not drawn) [Compound 3, 7-Cyclohexylmethyl-8-(4-isopropoxy-phenyl)-5,6,7,8-tetra hydro-tetrazolo[1,5-a]pyrazine]",9.9 to 40 µM
3,"Brc1cccc(C2c3nnnn3CCN2CC2CCCCC2)c1 (stereo not drawn) [Compound 9, 8-(3-Bromo-phenyl)-7-cyclohexylmethyl-5,6,7,8-tetrahydro-tetrazolo[1,5-a]pyrazine]",9.9 to 40 µM
4,"CN(C)c1ccc(C2c3nnnn3CCN2Cc2cc(F)ccc2F)cc1 (stereo not drawn) [Compound 16, {4-[7-(2,5-Difluoro-benzyl)-5,6,7,8-tetrahydro-tetrazolo[1,5-a]pyrazin-8-yl]-phenyl}-dimethyl-amine]",9.9 to 40 µM
5,"COc1ccc(OC)c(CN2CCn3nnnc3C2c2ccc(OC(C)C)cc2)c1 (stereo not drawn) [Compound 1, 7-(2,5-Dimethoxy-benzyl)-8-(4-isopropoxy-phenyl)-5,6,7,8-tetrahydro-tetrazolo[1,5-a]pyrazine]",9.9 to 40 µM
6,"Cc1cccc(CN2CCn3nnnc3C2c2ccc(F)cc2)c1 (single isomer, unassigned) [Compound 93-b, 8-(4-Fluoro-phenyl)-7-(3-methyl-benzyl)-5,6,7,8-tetrahydro-tetrazolo[1,5-a]pyrazine]",9.9 to 40 µM
7,"COc1ccc(OC)c(C2c3nnnn3CCN2Cc2cn(-c3ccccc3)nc2C(C)C)c1 (stereo not drawn) [Compound 13, 8-(2,5-Dimethoxy-phenyl)-7-(3-isopropyl-1-phenyl-1H-pyrazol-4-ylmethyl)-5,6,7,8-tetrahydro-tetrazolo[1,5-a]pyrazine]",9.9 to 40 µM
